# Experimental data as given in ChEMBL document CHEMBL3885881, “DrugMatrix”.
# Species: Rattus norvegicus
# Experiment: DrugMatrix - Regimen: Daily Repeat
# Type: toxicity, organism-based, Sprague-Dawley
# Parameters: regimen Daily Repeat, gender Male, age 6-8 weeks
# Settings: in vivo, po, […], route oral GAVAGE; for BASOPHIL / EOSINOPHIL / ERYTHROCYTE COUNT / HEMATOCRIT / HEMOGLOBIN / LEUKOCYTE COUNT / LYMPHOCYTE / MEAN CORPUSCULAR HEMOGLOBIN / MEAN CORPUSCULAR HEMOGLOBIN CONCENTRATION / MEAN CORPUSCULAR VOLUME / MONOCYTE / NEUTROPHIL / PLATELET COUNT / ABSOLUTE BASOPHIL / ABSOLUTE EOSINOPHIL / ABSOLUTE LYMPHOCYTE / ABSOLUTE MONOCYTE / ABSOLUTE SEGMENTED NEUTROPHIL / NUCLEATED RED BLOOD CELLS: tissue Blood; for ALANINE AMINOTRANSFERASE / ALBUMIN / ALKALINE PHOSPHATASE / ASPARTATE AMINOTRANSFERASE / BLOOD UREA NITROGEN / CHLORIDE / CHOLESTEROL / CREATINE PHOSPHOKINASE / CREATININE / GLUCOSE / PHOSPHORUS / POTASSIUM / SODIUM / TOTAL BILIRUBIN / TOTAL PROTEIN / CARBON DIOXIDE / LACTATE DEHYDROGENASE / LIPASE / URIC ACID: tissue Plasma
# [1] = 11 mg/kg, dose level High, time 28 day
# [2] = 72 h, dose 2.5 mg/Kg, dose level Low, time 3 day
# [3] = 120 h, dose 2.5 mg/Kg, dose level Low, time 5 day
compound,measurement,setting,value
O=[N+]([O-])c1cc([As](=O)(O)O)ccc1O [ROXARSONE],BASOPHIL,[1],0.47%
same,EOSINOPHIL,[1],0.51%
same,ERYTHROCYTE COUNT,[1],8.5 x10E6/uL
same,HEMATOCRIT,[1],51.09%
same,HEMOGLOBIN,[1],16.79 G/DL
same,LEUKOCYTE COUNT,[1],12.9 x10E3/uL
same,LYMPHOCYTE,[1],81.69%
same,MEAN CORPUSCULAR HEMOGLOBIN,[1],19.74 pg
same,MEAN CORPUSCULAR HEMOGLOBIN CONCENTRATION,[1],32.83 G/DL
same,MEAN CORPUSCULAR VOLUME,[1],60.14 fL
same,MONOCYTE,[1],1.78%
same,NEUTROPHIL,[1],14.18%
same,PLATELET COUNT,[1],1300.33 x10E3/uL
same,ALANINE AMINOTRANSFERASE,[1],30.56 u/L
same,ALBUMIN,[1],3.98 G/DL
same,ALKALINE PHOSPHATASE,[1],205 u/L
same,ASPARTATE AMINOTRANSFERASE,[1],60.78 u/L
same,BLOOD UREA NITROGEN,[1],11.78 mg/dL
same,CHLORIDE,[1],107.33 MEQ/L
same,CHOLESTEROL,[1],57.22 mg/dL
same,CREATINE PHOSPHOKINASE,[1],179.11 u/L
same,CREATININE,[1],0.44 mg/dL
same,GLUCOSE,[1],136.78 mg/dL
same,PHOSPHORUS,[1],11.58 mg/dL
same,POTASSIUM,[1],6.69 MEQ/L
same,SODIUM,[1],152.22 MEQ/L
same,TOTAL BILIRUBIN,[1],0.23 mg/dL
same,TOTAL PROTEIN,[1],6.68 G/DL
same,ABSOLUTE BASOPHIL,[2],0 CELLS/uL
same,ABSOLUTE EOSINOPHIL,[2],0 CELLS/uL
same,ABSOLUTE LYMPHOCYTE,[2],9950.67 CELLS/uL
same,ABSOLUTE MONOCYTE,[2],307.67 CELLS/uL
same,ABSOLUTE SEGMENTED NEUTROPHIL,[2],1408.33 CELLS/uL
same,BASOPHIL,[2],0%
same,EOSINOPHIL,[2],0%
same,ERYTHROCYTE COUNT,[2],5.09 x10E6/uL
same,HEMATOCRIT,[2],33.27%
same,HEMOGLOBIN,[2],13.17 G/DL
same,LEUKOCYTE COUNT,[2],11.67 x10E3/uL
same,LYMPHOCYTE,[2],85.33%
same,MEAN CORPUSCULAR HEMOGLOBIN,[2],25.9 pg
same,MEAN CORPUSCULAR HEMOGLOBIN CONCENTRATION,[2],39.6 G/DL
same,MEAN CORPUSCULAR VOLUME,[2],65.4 fL
same,MONOCYTE,[2],2.67%
same,NEUTROPHIL,[2],12%
same,NUCLEATED RED BLOOD CELLS,[2],0 /100WBC
same,PLATELET COUNT,[2],1052.67 x10E3/uL
same,ALANINE AMINOTRANSFERASE,[2],79.33 u/L
same,ALBUMIN,[2],4.07 G/DL
same,ALKALINE PHOSPHATASE,[2],426.33 u/L
same,ASPARTATE AMINOTRANSFERASE,[2],104 u/L
same,BLOOD UREA NITROGEN,[2],11 mg/dL
same,CARBON DIOXIDE,[2],22 mmol/L
same,CHLORIDE,[2],103.67 MEQ/L
same,CHOLESTEROL,[2],66.33 mg/dL
same,CREATINE PHOSPHOKINASE,[2],289.33 u/L
same,CREATININE,[2],0.18 mg/dL
same,GLUCOSE,[2],163.33 mg/dL
same,LACTATE DEHYDROGENASE,[2],290.33 u/L
same,LIPASE,[2],12.33 u/L
same,PHOSPHORUS,[2],11 mg/dL
same,POTASSIUM,[2],6.16 MEQ/L
same,SODIUM,[2],142.77 MEQ/L
same,TOTAL BILIRUBIN,[2],0.2 mg/dL
same,TOTAL PROTEIN,[2],5.47 G/DL
same,URIC ACID,[2],1.57 mg/dL
same,ABSOLUTE BASOPHIL,[3],0 CELLS/uL
same,ABSOLUTE EOSINOPHIL,[3],60.33 CELLS/uL
same,ABSOLUTE LYMPHOCYTE,[3],15548.33 CELLS/uL
same,ABSOLUTE MONOCYTE,[3],0 CELLS/uL
same,ABSOLUTE SEGMENTED NEUTROPHIL,[3],2058 CELLS/uL
same,BASOPHIL,[3],0%
same,EOSINOPHIL,[3],0.33%
same,ERYTHROCYTE COUNT,[3],5.56 x10E6/uL
same,HEMATOCRIT,[3],35.6%
same,HEMOGLOBIN,[3],14.43 G/DL
same,LEUKOCYTE COUNT,[3],17.67 x10E3/uL
same,LYMPHOCYTE,[3],88%
same,MEAN CORPUSCULAR HEMOGLOBIN,[3],26 pg
same,MEAN CORPUSCULAR HEMOGLOBIN CONCENTRATION,[3],40.53 G/DL
same,MEAN CORPUSCULAR VOLUME,[3],64.1 fL
same,MONOCYTE,[3],0%
same,NEUTROPHIL,[3],11.67%
same,NUCLEATED RED BLOOD CELLS,[3],0.33 /100WBC
same,PLATELET COUNT,[3],1233.67 x10E3/uL
same,ALANINE AMINOTRANSFERASE,[3],63.33 u/L
same,ALBUMIN,[3],4.23 G/DL
same,ALKALINE PHOSPHATASE,[3],389.33 u/L
same,ASPARTATE AMINOTRANSFERASE,[3],94 u/L
same,BLOOD UREA NITROGEN,[3],13 mg/dL
same,CARBON DIOXIDE,[3],32.33 mmol/L
same,CHLORIDE,[3],100.67 MEQ/L
same,CHOLESTEROL,[3],60.67 mg/dL
same,CREATINE PHOSPHOKINASE,[3],298.67 u/L
same,CREATININE,[3],0.18 mg/dL
same,GLUCOSE,[3],151 mg/dL
same,LACTATE DEHYDROGENASE,[3],370 u/L
same,LIPASE,[3],11.67 u/L
same,PHOSPHORUS,[3],10.73 mg/dL
same,POTASSIUM,[3],6.25 MEQ/L
same,SODIUM,[3],142.83 MEQ/L
same,TOTAL BILIRUBIN,[3],0.2 mg/dL
same,TOTAL PROTEIN,[3],6.03 G/DL
same,URIC ACID,[3],1.77 mg/dL
